System: western diet (WD)-induced obese low density lipoprotein receptor knock-out (ldlr−/−) mouse model
Assay: Western diet (WD)-induced obese ldlr−/− mouse model: blood, liver, aorta and body weight readouts
Type: in vivo
Settings: WD-fed ldlr−/− mice, 16 wk, fenofibrate 100 mg/kg/day
Method: The therapeutic and microbiome effects of the selected oligosaccharide composition were tested in a validated western diet (WD)-induced obese low density lipoprotein receptor knock-out (ldlr^−/−) mouse model, thought to recapitulate a number of metabolic pathologies found in humans, including obesity, hyperglycemia, glucose intolerance, hyperinsulinemia, insulin resistance, severe hypercholesterolemia, hypertriglyceridemia, atherosclerosis, hepatic steatosis and hepatic inflammation. […]
9-11 weeks old male C57BL/6J ldlr^−/− mice were split into one of four treatment groups (12 animals per group, 4 animals per cage)—(1) no treatment (NT), (2) the selected oligosaccharide (as produced by the process described in Example 2), (3) a glucose/galactose-based oligosaccharide composition and (4) fenofibrate—for 16 weeks. […] The body weight for each animal was measured prior to the treatment period and weekly over the treatment period. 4-day food intake for each cage was measured weekly over the treatment period and averaged as food intake per mouse per day. […] For each animal, separate liver sections (˜100 mg each) were collected and frozen for the quantification of hepatic TG and hepatic TC. […] The aortic arch was surface stained with oil red O for the quantification of atherosclerotic plaque surface area.

CC(C)OC(=O)C(C)(C)Oc1ccc(C(=O)c2ccc(Cl)cc2)cc1 [fenofibrate, Fenofibrate]
effect on food intake (OS 7.5% w/w in diet): no effect
body weight gain lowered by, compared to NT: 44%

Source: patent publication US20230277573A1, “OLIGOSACCHARIDE COMPOSITIONS AND METHODS OF USE” (DSM Nutritional Products, LLC, priority 2020, published 2023)
